This is an account of results in US20250352555A1, “METHOD OF INCREASING IMMUNE CELL ACTIVATION AND/OR TREATING CANCER USING DIBENZOXAZEPINONES” (VASCULAR THERAPEUTICS PTY LTD, priority 2022, published 2025).

Where “and” joins values, the source holds several entries; their conditions need not be identical. Identical values can stand only once.

In one data set the test system is PD-1. In words: Flow cytometry with anti-PD-1 antibodies, Jurkat T cells. In kind it is cell-based, human. To be noted: for inhibition of PD-1 levels: time course (FIG. 17C). The method, then: Flow cytometry with anti-PD-1 antibodies. Jurkat T cells were grown in 6 well plates containing RPMI 1640 and 10% FBS. After 24 h, the cells were treated with various concentrations of BT2 or BT3 for 48 h. Alternatively, the cells were incubated with 3 μM BT2 for various times. After treatment, the cells were washed with PBS, and centrifuged at 300×g for 5 min, and resuspended at 5×10^6 cells/ml. The cells were then incubated with BV421 conjugated mouse anti-human CD279 (PD-1) (BD, cat. no. 562516) or BV421 conjugated mouse IgG1 (BD, cat. no. 562438) for 45 min at 22° C. Cells were then washed twice with 1 ml of Stain Buffer, centrifuged and pellets were resuspended in 0.5 ml Stain Buffer. Stained cell suspensions were analyzed by flow cytometry using a BD FACSCanto (II).
Jurkat T cells express PD-1 (Yi et al., 2023) and are widely used as model human T cells (e.g., Repas et al., 2022). […] BT2's effects were not only dose-dependent but time-dependent. BT2 (3 μM) inhibited PD-1 levels by 50% after 24 h and by 80% after 48 h (FIG. 17C).
On the technique in general: A flow cytometer gives signals particle by particle.

Data set [1] can be described thus: Serum BT2 concentration by LC-MS in B16F10 tumor-bearing mice. Format: in vivo. To be noted: mouse, intraperitoneal, Day 17, 200 mg/kg i.p., C57BL/6J mice. The method, then:
Mass spectrometry. Proteins in serum (50 μl) were precipitated by diluting with acetone (150 μl). The mixture was left for 14 h at 4° C. and protein was pelleted by centrifugation (10 min at 14,000 g) and supernatant removed. The solution (10 μl) was diluted into 40 μl Buffer A (H2O (0.1% formic acid)) for MS analysis. BT2 standard was prepared by diluting stock suspension of BT2 ([…], 30 mg/ml) in Buffer A (990 μl) then diluting 10 μl of this in 990 μl followed by another 1 in 100 dilution. […] LC-MS was performed using a Thermo QExactive HF, Gold C18 column (50×2.1 mm) with Solvent A (H2O (0.1% formic acid) and Solvent B (H2O:CH3CN 20:80 (0.1% formic acid) with gradient T=0, 1% B, T=26 min, 100% B, T=27 min, 100%, T=27.1, 1% B, T=30 min, 1% B; column temperature 45° C. MS1 scan, m/z 140-800, 3×10^6 ions, max IT 25 msec, resolution 120,000 and Top 5 MS2 (2×10^5 ions, max IT 50 msec, resolution 30,000 and HCD 20, 30 50V). Extracted ion chromatograms (m/z 327.134±5 ppm) were obtained for blanks, standards and samples and integrated peak areas calculated and compared).
To assess the effect of BT2 in the same model, C57BL/6J mice bearing s.c. B16F10 tumors were administered with BT2 or vehicle (200 mg/kg or 20 ml/kg, respectively, i.p.) once a day on a 5 days-on/2 days-off schedule. Treatment commenced on Day 5 (FIG. 9A). […]

For a further data set, the system named is JUN. In words: Western blotting for JUN, MDA-MB-435 cells. Format: cell-based, human. To be noted: MDA-MB-435 cells (BRAF^V600E), 24 h, dose-dependent. On the procedure:
Western blotting. Cells were treated with compounds and times indicated and total cell lysates were prepared in RIPA buffer. Lysates (10 μg) were resolved by SDS-PAGE and transferred to Immobilon-P polyvinylidene difluoride (PVDF) membranes (Millipore, USA).
Membranes were blocked with 5% skim milk and incubated with rabbit monoclonal anti-c-Jun (Abcam, cat. no. ab32137; mouse, rat and human reactive) antibody, rabbit monoclonal anti-PD-1 (Abcam, cat. no. ab214421) antibody, mouse monoclonal β-actin antibody (Sigma-Aldrich, cat. no. A5316), anti-phospho-SAPK/JNK (Thr^183/Tyr^185) (98F2) (CST, cat. no. 4671) antibody, anti-phospho-p44/42 MAPK (ERK1/2) (Thr^202/Tyr^204) (D13.14.4E) (CST, cat. no. 4370) antibody, anti-phospho-p38 MAPK (Thr^180/Tyr^182) (D3F9) (CST, cat. no. 4511) antibody, anti-SAPK/JNK antibody (CST, cat. no. 9252), anti-p44/42 MAPK (ERK1/2) (137F5) antibody (CST, cat. no. 4695), anti-p38 MAPK antibody (CST, cat. no. 9212), anti-DUSP8 antibody (Abcam, cat. no. ab198175) or anti-c-MAF (BLR045F) antibody (Abcam, cat. no. ab243901). […] Chemiluminescence was detected using the Western Lightning Chemiluminescence system (Thermo Scientific, USA) and ImageQuant™ LAS 4000 biomolecular imager (GE Healthcare Life Sciences, USA). Band intensity in images generated with the LAS 4000 was quantified using NIH Image J. […]
On the technique in general: In western blotting, separated proteins are transferred to a membrane and probed.

Take `CCOC(=O)Nc1ccc2c(c1)C(=O)N(CC)c1ccccc1O2` [BT2, (10-ethyl-11-oxo-10,11-dihydro-dibenzo[b,f][1,4]oxazepin-2-yl)-carbamic acid ethyl ester]: the “reduction of PD-1 expression” value came to 50% with PD-1 (0.1 μM, 48 h (FIG. 17A)) and 80% in the data set on PD-1 (3 μM, 48 h, dose response (FIG. 17A)). For the same compound, the “inhibition of PD-1 levels” value in the data set on PD-1 (3 μM, 24 h) is given as 50%; with PD-1 (3 μM, 48 h) it was 80%. Further, the concentration at 17 day in data set [1] was 4000 ng/mL and 12.3 µM. The “JUN expression (Western blot)” value with JUN is recorded as “increased”.
